Reference: PubChem BioAssay (NCI)
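Interpolation was linear, between the two tested concentrations surrounding the appropriate level; five concentrations were tested over 48 hours in 96-well plates. The concentration for full growth arrest is given as TGI.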

How the values were obtained:
Experiment in all cases: DTP human tumour cell line panel, 48 h
786-0 renal = tested on: 786-0 renal
A498 renal = tested on: A498 renal
A549 NSCLC = tested on: A549 NSCLC
ACHN renal = tested on: ACHN renal
BT-549 breast = tested on: BT-549 breast
CAKI-1 renal = tested on: CAKI-1 renal
CCRF-CEM leukemia = tested on: CCRF-CEM leukemia
COLO 205 colon = tested on: COLO 205 colon
DU-145 prostate = tested on: DU-145 prostate
EKVX NSCLC = tested on: EKVX NSCLC
HCC-2998 colon = tested on: HCC-2998 colon
HCT-116 colon = tested on: HCT-116 colon
HCT-15 colon = tested on: HCT-15 colon
HL-60(TB) leukemia = tested on: HL-60(TB) leukemia
HOP-62 NSCLC = tested on: HOP-62 NSCLC
HOP-92 NSCLC = tested on: HOP-92 NSCLC
HS 578T breast = tested on: HS 578T breast
HT29 colon = tested on: HT29 colon
IGROV1 ovarian = tested on: IGROV1 ovarian
K-562 leukemia = tested on: K-562 leukemia
KM12 colon = tested on: KM12 colon
LOX IMVI melanoma = tested on: LOX IMVI melanoma
M14 melanoma = tested on: M14 melanoma
MALME-3M melanoma = tested on: MALME-3M melanoma
MCF7 breast = tested on: MCF7 breast
MDA-MB-231 breast = tested on: MDA-MB-231 breast
MDA-MB-435 = tested on: MDA-MB-435
MDA-N = tested on: MDA-N
MOLT-4 leukemia = tested on: MOLT-4 leukemia
NCI-H226 lung = tested on: NCI-H226 lung
NCI-H23 lung = tested on: NCI-H23 lung
NCI-H460 lung = tested on: NCI-H460 lung
NCI-H522 lung = tested on: NCI-H522 lung
NCI/ADR-RES ovarian = tested on: NCI/ADR-RES ovarian
OVCAR-3 ovarian = tested on: OVCAR-3 ovarian
OVCAR-4 ovarian = tested on: OVCAR-4 ovarian
OVCAR-5 ovarian = tested on: OVCAR-5 ovarian
OVCAR-8 ovarian = tested on: OVCAR-8 ovarian
PC-3 prostate = tested on: PC-3 prostate
RPMI-8226 leukemia = tested on: RPMI-8226 leukemia
SF-268 CNS = tested on: SF-268 CNS
SF-295 CNS = tested on: SF-295 CNS
SF-539 CNS = tested on: SF-539 CNS
SK-MEL-2 melanoma = tested on: SK-MEL-2 melanoma
SK-MEL-28 melanoma = tested on: SK-MEL-28 melanoma
SK-MEL-5 melanoma = tested on: SK-MEL-5 melanoma
SK-OV-3 ovarian = tested on: SK-OV-3 ovarian
SN12C renal = tested on: SN12C renal
SNB-19 CNS = tested on: SNB-19 CNS
SNB-75 CNS = tested on: SNB-75 CNS
SR leukemia = tested on: SR leukemia
SW-620 colon = tested on: SW-620 colon
T-47D breast = tested on: T-47D breast
TK-10 renal = tested on: TK-10 renal
U251 CNS = tested on: U251 CNS
UACC-257 melanoma = tested on: UACC-257 melanoma
UACC-62 melanoma = tested on: UACC-62 melanoma
UO-31 renal = tested on: UO-31 renal
RXF 393 renal = tested on: RXF 393 renal

## C=CCOc1cccc(C2(O)c3ccccc3C3=NCCCN32)c1 (stereo not given)
786-0 renal
  TGI: 25.2 µM
A498 renal
  TGI: 53.2 µM
A549 NSCLC
  TGI: > 39.4 µM
ACHN renal
  TGI: 26.5 µM
BT-549 breast
  TGI: > 100 µM
CAKI-1 renal
  TGI: > 86.6 µM
CCRF-CEM leukemia
  TGI: 40.9 µM
COLO 205 colon
  TGI: 33.5 µM
DU-145 prostate
  TGI: > 100 µM
EKVX NSCLC
  TGI: > 35.1 µM
HCC-2998 colon
  TGI: 29.6 µM
HCT-116 colon
  TGI: 29.6 µM
HCT-15 colon
  TGI: > 50 µM
HL-60(TB) leukemia
  TGI: > 35.6 µM
HOP-62 NSCLC
  TGI: 38.8 µM
HOP-92 NSCLC
  TGI: > 82.6 µM
HS 578T breast
  TGI: > 78.4 µM
HT29 colon
  TGI: 27.2 µM
IGROV1 ovarian
  TGI: > 37.4 µM
K-562 leukemia
  TGI: > 35.4 µM
KM12 colon
  TGI: 24.7 µM
LOX IMVI melanoma
  TGI: 29.4 µM
M14 melanoma
  TGI: 26.1 µM
MALME-3M melanoma
  TGI: 35.1 µM
MCF7 breast
  TGI: 32 µM
MDA-MB-231 breast
  TGI: > 100 µM
MDA-MB-435
  TGI: 26 µM
MDA-N
  TGI: 33.1 µM
MOLT-4 leukemia
  TGI: 40 µM
NCI-H226 lung
  TGI: > 31.6 µM
NCI-H23 lung
  TGI: > 47.2 µM
NCI-H460 lung
  TGI: 36.7 µM
NCI-H522 lung
  TGI: 41.4 µM
NCI/ADR-RES ovarian
  TGI: > 75.6 µM
OVCAR-3 ovarian
  TGI: 10.4 µM
OVCAR-4 ovarian
  TGI: > 80.1 µM
OVCAR-5 ovarian
  TGI: > 77.9 µM
OVCAR-8 ovarian
  TGI: > 43.2 µM
PC-3 prostate
  TGI: > 44.4 µM
RPMI-8226 leukemia
  TGI: 40.3 µM
SF-268 CNS
  TGI: > 100 µM
SF-295 CNS
  TGI: 7.83 µM
SF-539 CNS
  TGI: 37.6 µM
SK-MEL-2 melanoma
  TGI: 17.5 µM
SK-MEL-28 melanoma
  TGI: 24.7 µM
SK-MEL-5 melanoma
  TGI: 41.9 µM
SK-OV-3 ovarian
  TGI: > 100 µM
SN12C renal
  TGI: > 68.8 µM
SNB-19 CNS
  TGI: 18.4 µM
SNB-75 CNS
  TGI: 36.8 µM
SR leukemia
  TGI: 32.6 µM
SW-620 colon
  TGI: 28.7 µM
T-47D breast
  TGI: 45.5 µM
TK-10 renal
  TGI: > 100 µM
U251 CNS
  TGI: 32.5 µM
UACC-257 melanoma
  TGI: 33.1 µM
UACC-62 melanoma
  TGI: 31.6 µM
UO-31 renal
  TGI: 29.4 µM

## Cc1cc2c(cc1-c1cc3c(cc1C)C(C(C)C)=C(O)C(=O)/C3=C\Nc1c3ccccc3nc3ccccc13)/C(=C/Nc1c3ccccc3nc3ccccc13)C(=O)C(O)=C2C(C)C
786-0 renal
  TGI: 14.8 µM
A498 renal
  TGI: 21.9 µM
A549 NSCLC
  TGI: 13.1 µM
ACHN renal
  TGI: 5.91 µM
BT-549 breast
  TGI: 20.7 µM
CCRF-CEM leukemia
  TGI: 25.5 µM
COLO 205 colon
  TGI: 6.72 µM
DU-145 prostate
  TGI: 20.6 µM
EKVX NSCLC
  TGI: 5.67 µM
HCT-116 colon
  TGI: 21.5 µM
HCT-15 colon
  TGI: 14.9 µM
HL-60(TB) leukemia
  TGI: 11.2 µM
HOP-62 NSCLC
  TGI: 16.6 µM
HOP-92 NSCLC
  TGI: 21.5 µM
HS 578T breast
  TGI: 21 µM
HT29 colon
  TGI: 5.1 µM
IGROV1 ovarian
  TGI: 11.1 µM
KM12 colon
  TGI: 14.1 µM
M14 melanoma
  TGI: 12.6 µM
MALME-3M melanoma
  TGI: 10.1 µM
MCF7 breast
  TGI: 11 µM
MDA-MB-231 breast
  TGI: 19 µM
MDA-MB-435
  TGI: 17.1 µM
MDA-N
  TGI: 15.8 µM
MOLT-4 leukemia
  TGI: 16 µM
NCI-H226 lung
  TGI: 5.53 µM
NCI-H23 lung
  TGI: 15 µM
NCI-H460 lung
  TGI: 6.3 µM
NCI-H522 lung
  TGI: 2.97 µM
NCI/ADR-RES ovarian
  TGI: 12.9 µM
OVCAR-3 ovarian
  TGI: 14.5 µM
OVCAR-4 ovarian
  TGI: 12.8 µM
OVCAR-5 ovarian
  TGI: 16.7 µM
OVCAR-8 ovarian
  TGI: 12.8 µM
PC-3 prostate
  TGI: 12.9 µM
RPMI-8226 leukemia
  TGI: > 100 µM
RXF 393 renal
  TGI: 20.1 µM
SF-268 CNS
  TGI: 14.7 µM
SF-295 CNS
  TGI: 12.9 µM
SF-539 CNS
  TGI: 16.1 µM
SK-MEL-2 melanoma
  TGI: 19.2 µM
SK-MEL-28 melanoma
  TGI: 19.5 µM
SK-MEL-5 melanoma
  TGI: 15.4 µM
SK-OV-3 ovarian
  TGI: 15.9 µM
SN12C renal
  TGI: 22 µM
SNB-19 CNS
  TGI: 13.6 µM
SNB-75 CNS
  TGI: 13 µM
SR leukemia
  TGI: 18.4 µM
SW-620 colon
  TGI: 13.3 µM
T-47D breast
  TGI: 26.8 µM
U251 CNS
  TGI: 13.7 µM
UACC-257 melanoma
  TGI: 16.6 µM
UACC-62 melanoma
  TGI: 14.6 µM
UO-31 renal
  TGI: 15.4 µM

## CC(CCN)(CCN)[N+](=O)[O-]
786-0 renal
  TGI: > 100 µM
A498 renal
  TGI: > 100 µM
A549 NSCLC
  TGI: > 100 µM
ACHN renal
  TGI: > 100 µM
BT-549 breast
  TGI: > 100 µM
CAKI-1 renal
  TGI: > 100 µM
CCRF-CEM leukemia
  TGI: > 100 µM
COLO 205 colon
  TGI: > 100 µM
DU-145 prostate
  TGI: > 100 µM
EKVX NSCLC
  TGI: > 100 µM
HCT-116 colon
  TGI: > 100 µM
HCT-15 colon
  TGI: > 100 µM
HL-60(TB) leukemia
  TGI: > 100 µM
HOP-62 NSCLC
  TGI: > 100 µM
HOP-92 NSCLC
  TGI: > 100 µM
HS 578T breast
  TGI: > 100 µM
HT29 colon
  TGI: > 100 µM
IGROV1 ovarian
  TGI: > 100 µM
K-562 leukemia
  TGI: > 100 µM
KM12 colon
  TGI: > 100 µM
LOX IMVI melanoma
  TGI: > 100 µM
M14 melanoma
  TGI: > 100 µM
MALME-3M melanoma
  TGI: > 100 µM
MCF7 breast
  TGI: > 100 µM
MDA-MB-231 breast
  TGI: > 100 µM
MDA-MB-435
  TGI: > 100 µM
MDA-N
  TGI: > 100 µM
MOLT-4 leukemia
  TGI: > 100 µM
NCI-H226 lung
  TGI: > 100 µM
NCI-H23 lung
  TGI: > 100 µM
NCI-H460 lung
  TGI: > 100 µM
NCI-H522 lung
  TGI: > 100 µM
NCI/ADR-RES ovarian
  TGI: > 100 µM
OVCAR-3 ovarian
  TGI: > 100 µM
OVCAR-4 ovarian
  TGI: > 100 µM
OVCAR-5 ovarian
  TGI: > 100 µM
OVCAR-8 ovarian
  TGI: > 100 µM
PC-3 prostate
  TGI: > 100 µM
RPMI-8226 leukemia
  TGI: > 100 µM
RXF 393 renal
  TGI: > 100 µM
SF-268 CNS
  TGI: > 100 µM
SF-295 CNS
  TGI: > 100 µM
SF-539 CNS
  TGI: > 100 µM
SK-MEL-2 melanoma
  TGI: > 100 µM
SK-MEL-28 melanoma
  TGI: > 100 µM
SK-MEL-5 melanoma
  TGI: > 100 µM
SK-OV-3 ovarian
  TGI: > 100 µM
SN12C renal
  TGI: > 100 µM
SNB-19 CNS
  TGI: > 100 µM
SNB-75 CNS
  TGI: > 100 µM
SR leukemia
  TGI: > 100 µM
SW-620 colon
  TGI: > 100 µM
T-47D breast
  TGI: > 100 µM
TK-10 renal
  TGI: > 100 µM
U251 CNS
  TGI: > 100 µM
UACC-257 melanoma
  TGI: > 100 µM
UACC-62 melanoma
  TGI: > 100 µM
UO-31 renal
  TGI: > 100 µM
